Measurements published in ChEMBL document CHEMBL1201862, “PubChem BioAssay data set” (2004).
Active and inactive are the calls of the source.

What was measured:
[1] = human group III sPLA2 inhibitors, dose response, biochemical, QFRET, IC50 (AID 743457);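 also: green fluorescence rise as the enzyme cleaves BODIPY PC-A2 in liposomes; potency for inhibition of the enzyme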
[2] = target: T1, Fructose-bisphosphate aldolase (Mycobacterium tuberculosis, UniProt P9WQA3); assay: Fluorescence-based biochemical high throughput dose response assay for inhibitors of the fructose-bisphosphate aldolase (FBA) of M. tuberculosis.; type: functional
T1 sequence (P9WQA3 whole entry): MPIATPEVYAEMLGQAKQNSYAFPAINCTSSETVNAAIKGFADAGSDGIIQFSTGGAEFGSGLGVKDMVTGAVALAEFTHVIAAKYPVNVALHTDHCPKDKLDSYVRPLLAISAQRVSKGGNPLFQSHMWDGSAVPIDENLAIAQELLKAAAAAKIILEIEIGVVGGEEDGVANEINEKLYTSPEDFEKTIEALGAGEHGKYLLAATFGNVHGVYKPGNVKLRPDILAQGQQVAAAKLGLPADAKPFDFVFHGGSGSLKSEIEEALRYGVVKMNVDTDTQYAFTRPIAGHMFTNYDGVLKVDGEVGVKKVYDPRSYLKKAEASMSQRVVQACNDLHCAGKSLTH

[3] = target: Glyceraldehyde-3-phosphate dehydrogenase (Homo sapiens, UniProt P04406)
[4] = target: T2, Long-chain-fatty-acid--AMP ligase FadD28 (Mycobacterium tuberculosis, UniProt P9WQ59); assay: Fluorescence polarization aasay to screen for inhibitors that compete for the binding of FadD28 to a bisubstrate Measured in Biochemical System Using Plate Reader - 2147-01_Inhibitor_Dose_CherryPick_Activity.; type: functional, Mycobacterium tuberculosis H37Rv
T2 sequence (P9WQ59 whole entry): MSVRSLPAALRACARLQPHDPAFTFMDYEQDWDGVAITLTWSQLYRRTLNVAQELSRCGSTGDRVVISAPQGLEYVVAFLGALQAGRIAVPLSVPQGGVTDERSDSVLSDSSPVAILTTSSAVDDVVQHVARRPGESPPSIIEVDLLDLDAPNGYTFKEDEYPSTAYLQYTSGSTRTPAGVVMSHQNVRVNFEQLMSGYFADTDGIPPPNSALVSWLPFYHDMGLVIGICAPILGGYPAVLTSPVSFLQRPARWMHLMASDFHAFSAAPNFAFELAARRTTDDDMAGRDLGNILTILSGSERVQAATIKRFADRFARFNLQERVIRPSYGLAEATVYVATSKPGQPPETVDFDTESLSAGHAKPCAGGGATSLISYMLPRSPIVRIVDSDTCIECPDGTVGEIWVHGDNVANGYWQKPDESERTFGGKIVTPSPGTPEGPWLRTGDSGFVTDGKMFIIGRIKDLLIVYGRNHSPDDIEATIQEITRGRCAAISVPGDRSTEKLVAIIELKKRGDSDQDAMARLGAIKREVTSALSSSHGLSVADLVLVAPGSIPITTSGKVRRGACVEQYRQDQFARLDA

[5] = target: Photoreceptor-specific nuclear receptor (Homo sapiens, UniProt Q9Y5X4); type: functional, cell-based;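 also: CHO-S cells with Gal4-NCOR and VP16-NR2E3 two-hybrid luciferase reporter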
[6] = target: T3, Oxysterols receptor LXR-beta (Homo sapiens, UniProt P55055); type: functional, cell-based;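 also: agonist activity at LXR measured by a cell-based luminescence readout across a dose range, run as a counterscreen for daf-12 agonists; HEK293 cells with Gal4-LXR fusion and GAL4-driven luciferase reporter; potency for activation of Gal4-LXR reporter so compounds are agonists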
T3 sequence (P55055 whole entry): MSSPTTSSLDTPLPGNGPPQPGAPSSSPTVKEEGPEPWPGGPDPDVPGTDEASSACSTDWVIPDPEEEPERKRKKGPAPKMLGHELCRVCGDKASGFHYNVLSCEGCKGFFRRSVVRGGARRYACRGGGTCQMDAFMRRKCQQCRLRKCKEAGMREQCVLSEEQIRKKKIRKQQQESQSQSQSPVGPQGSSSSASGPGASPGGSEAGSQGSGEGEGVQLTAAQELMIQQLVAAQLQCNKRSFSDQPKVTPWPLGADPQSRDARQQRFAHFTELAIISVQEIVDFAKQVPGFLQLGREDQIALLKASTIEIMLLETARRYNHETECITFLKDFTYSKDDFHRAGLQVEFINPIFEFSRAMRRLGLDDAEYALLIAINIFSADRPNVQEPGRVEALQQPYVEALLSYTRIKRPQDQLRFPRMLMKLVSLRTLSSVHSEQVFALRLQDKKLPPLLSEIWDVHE

Cytochrome P450 2D6 = Cytochrome P450 2D6 (Homo sapiens, UniProt P10635);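 also: CYP2D6 member of a cytochrome P450 panel assay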
Cytochrome P450 1A2 = target: T4, Cytochrome P450 1A2 (Homo sapiens, UniProt P05177);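 also: PubChem cytochrome P450 panel assay, CYP1A2 panel member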
T4 sequence (P05177 whole entry): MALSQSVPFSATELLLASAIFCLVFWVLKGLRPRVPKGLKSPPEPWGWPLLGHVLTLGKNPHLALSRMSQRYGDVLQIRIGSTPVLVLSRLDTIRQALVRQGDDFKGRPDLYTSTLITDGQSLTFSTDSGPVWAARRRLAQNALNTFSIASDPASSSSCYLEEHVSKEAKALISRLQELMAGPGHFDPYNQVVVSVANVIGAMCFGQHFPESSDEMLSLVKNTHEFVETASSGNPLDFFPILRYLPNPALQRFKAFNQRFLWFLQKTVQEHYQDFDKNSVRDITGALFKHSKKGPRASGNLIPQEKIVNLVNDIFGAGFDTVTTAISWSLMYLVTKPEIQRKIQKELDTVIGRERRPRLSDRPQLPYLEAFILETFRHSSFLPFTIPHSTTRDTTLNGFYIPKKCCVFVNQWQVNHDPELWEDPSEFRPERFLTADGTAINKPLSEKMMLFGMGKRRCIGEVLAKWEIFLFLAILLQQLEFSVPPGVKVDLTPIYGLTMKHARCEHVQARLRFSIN

Cytochrome P450 3A4 = Cytochrome P450 3A4 (Homo sapiens, UniProt P08684);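 also: CYP3A4 tested as one member of a cytochrome P450 panel screen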
[7] = LGR2 antagonists, dose response, cell-based, HEK293, CRE-luciferase reporter, cherry pick, set 2 (AID 743343); type: functional;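 also: transfected cells were stimulated with diluted bursicon conditioned medium after compound addition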
[8] = MC4R antagonists, dose response, counter-screen for LGR2 antagonist project, cell-based, plate reader, cherry pick (AID 743444); type: functional;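 also: transfected HEK 293 cells stimulated with alpha-MSH peptide; potency of inhibitors of the alpha-MSH evoked signal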
[9] = A549 cell cytotoxicity, dose response, cytotoxicity control, plate reader, cherry-pick, antagonist series (AID 743412); type: functional, cell-based
Nonstructural protein 1 = Nonstructural protein 1 (Influenza A virus, UniProt Q194T2); type: functional, Influenza A virus (A/California/07/2009(H1N1))
[10] = cytotoxicity in HEK-293T cells, dose response, cytotoxicity control for TCR NF-kB inhibitor project, luminescence, T-cell screen hits (AID 489026); type: functional, cell-based;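 also: cells exposed to compound about 14 hours before the viability readout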
INS1 = assay: beta cell apoptosis inhibitors, cytokine rescue, dose response, luminescence, retest (AID 449756); type: functional, cell-based; details: Rattus norvegicus;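 also: cell death triggered by IL-1 beta plus TNF-alpha plus IFN-gamma mixture; protective hits raise ATP signal compared with cytokine alone wells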
[11] = HeLa cell cytotoxicity, dose response, cytotoxicity control for MgcRacGAP inhibitor project (AID 624300); type: functional
[12] = target: T5, Apoptotic protease-activating factor 1 (Homo sapiens, UniProt O14727); type: functional
T5 sequence (O14727 whole entry): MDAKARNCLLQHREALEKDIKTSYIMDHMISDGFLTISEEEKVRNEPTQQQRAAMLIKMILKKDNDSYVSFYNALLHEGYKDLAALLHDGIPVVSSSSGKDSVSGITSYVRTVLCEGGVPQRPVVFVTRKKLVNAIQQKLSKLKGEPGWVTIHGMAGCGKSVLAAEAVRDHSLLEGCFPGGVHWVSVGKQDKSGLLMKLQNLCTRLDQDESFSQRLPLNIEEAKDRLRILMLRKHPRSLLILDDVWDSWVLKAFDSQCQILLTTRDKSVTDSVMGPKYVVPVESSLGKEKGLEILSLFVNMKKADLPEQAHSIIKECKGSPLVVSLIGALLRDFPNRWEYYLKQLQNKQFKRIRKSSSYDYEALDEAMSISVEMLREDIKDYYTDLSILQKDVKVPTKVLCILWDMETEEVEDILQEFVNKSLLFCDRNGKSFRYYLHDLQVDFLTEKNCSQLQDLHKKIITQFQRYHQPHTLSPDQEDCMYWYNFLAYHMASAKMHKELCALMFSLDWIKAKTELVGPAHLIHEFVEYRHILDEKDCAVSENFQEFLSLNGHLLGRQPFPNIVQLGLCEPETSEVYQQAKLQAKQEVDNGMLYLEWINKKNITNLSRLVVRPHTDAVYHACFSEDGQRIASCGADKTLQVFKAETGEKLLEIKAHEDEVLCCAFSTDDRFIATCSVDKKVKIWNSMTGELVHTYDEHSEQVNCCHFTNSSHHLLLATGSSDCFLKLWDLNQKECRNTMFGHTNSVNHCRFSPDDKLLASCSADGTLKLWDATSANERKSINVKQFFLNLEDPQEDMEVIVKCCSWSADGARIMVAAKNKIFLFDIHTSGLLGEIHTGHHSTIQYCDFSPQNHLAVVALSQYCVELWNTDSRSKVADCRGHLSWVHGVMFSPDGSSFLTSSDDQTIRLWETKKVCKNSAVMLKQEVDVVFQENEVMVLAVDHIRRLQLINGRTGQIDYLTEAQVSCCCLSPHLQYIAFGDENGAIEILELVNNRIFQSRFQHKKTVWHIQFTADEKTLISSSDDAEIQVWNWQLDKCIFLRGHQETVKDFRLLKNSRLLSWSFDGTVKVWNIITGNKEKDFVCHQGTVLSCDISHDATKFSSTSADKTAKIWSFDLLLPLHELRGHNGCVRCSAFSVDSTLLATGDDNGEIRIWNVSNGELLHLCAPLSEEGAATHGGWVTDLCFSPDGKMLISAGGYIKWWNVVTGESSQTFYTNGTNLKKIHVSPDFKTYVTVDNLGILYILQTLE

[13] = target: T6, Rac GTPase-activating protein 1 (Homo sapiens, UniProt Q9H0H5); assay: MgcRacGAP GTPase-activating activity inhibitors, confirmation, biochemical, ADP Hunter fluorescence, primary and confirmatory (AID 624330); type: functional
T6 sequence (Q9H0H5 whole entry): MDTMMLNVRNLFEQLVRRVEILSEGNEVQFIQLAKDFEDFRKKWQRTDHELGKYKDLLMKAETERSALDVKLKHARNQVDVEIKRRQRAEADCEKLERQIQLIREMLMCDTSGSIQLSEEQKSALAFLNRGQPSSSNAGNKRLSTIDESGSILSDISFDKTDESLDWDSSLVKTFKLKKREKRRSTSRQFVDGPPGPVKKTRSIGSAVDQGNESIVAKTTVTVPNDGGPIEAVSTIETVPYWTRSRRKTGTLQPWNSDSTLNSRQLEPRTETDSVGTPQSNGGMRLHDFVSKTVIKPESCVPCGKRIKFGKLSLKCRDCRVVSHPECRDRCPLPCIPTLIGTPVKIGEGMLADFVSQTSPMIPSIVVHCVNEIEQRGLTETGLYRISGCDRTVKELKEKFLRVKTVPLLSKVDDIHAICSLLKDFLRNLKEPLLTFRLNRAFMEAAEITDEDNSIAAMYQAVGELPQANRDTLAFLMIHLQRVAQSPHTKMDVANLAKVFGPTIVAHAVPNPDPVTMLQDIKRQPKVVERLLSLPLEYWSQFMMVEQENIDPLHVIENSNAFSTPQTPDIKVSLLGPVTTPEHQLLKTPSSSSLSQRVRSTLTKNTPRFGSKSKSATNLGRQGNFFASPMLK

Photoreceptor-specific nuclear receptor, sequence (Q9Y5X4 whole entry, the tested form may be a part): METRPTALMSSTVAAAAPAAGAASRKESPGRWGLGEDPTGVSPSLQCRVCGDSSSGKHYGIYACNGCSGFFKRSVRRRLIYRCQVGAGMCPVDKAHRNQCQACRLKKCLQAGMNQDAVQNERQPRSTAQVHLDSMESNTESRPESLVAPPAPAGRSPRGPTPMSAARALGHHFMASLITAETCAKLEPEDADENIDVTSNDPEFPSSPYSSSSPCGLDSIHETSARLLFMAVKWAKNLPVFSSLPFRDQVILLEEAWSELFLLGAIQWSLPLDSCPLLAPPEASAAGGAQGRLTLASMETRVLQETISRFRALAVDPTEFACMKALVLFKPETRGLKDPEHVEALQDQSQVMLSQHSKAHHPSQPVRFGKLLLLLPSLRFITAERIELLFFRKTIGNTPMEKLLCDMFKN
Nonstructural protein 1, sequence (Q194T2 whole entry): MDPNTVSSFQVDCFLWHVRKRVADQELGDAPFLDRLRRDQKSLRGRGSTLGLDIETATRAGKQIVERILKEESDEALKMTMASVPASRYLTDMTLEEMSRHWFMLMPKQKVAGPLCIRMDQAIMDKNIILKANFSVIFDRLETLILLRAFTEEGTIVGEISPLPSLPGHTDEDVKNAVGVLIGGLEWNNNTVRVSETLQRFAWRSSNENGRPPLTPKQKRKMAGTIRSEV
Cytochrome P450 3A4, sequence (P08684 whole entry): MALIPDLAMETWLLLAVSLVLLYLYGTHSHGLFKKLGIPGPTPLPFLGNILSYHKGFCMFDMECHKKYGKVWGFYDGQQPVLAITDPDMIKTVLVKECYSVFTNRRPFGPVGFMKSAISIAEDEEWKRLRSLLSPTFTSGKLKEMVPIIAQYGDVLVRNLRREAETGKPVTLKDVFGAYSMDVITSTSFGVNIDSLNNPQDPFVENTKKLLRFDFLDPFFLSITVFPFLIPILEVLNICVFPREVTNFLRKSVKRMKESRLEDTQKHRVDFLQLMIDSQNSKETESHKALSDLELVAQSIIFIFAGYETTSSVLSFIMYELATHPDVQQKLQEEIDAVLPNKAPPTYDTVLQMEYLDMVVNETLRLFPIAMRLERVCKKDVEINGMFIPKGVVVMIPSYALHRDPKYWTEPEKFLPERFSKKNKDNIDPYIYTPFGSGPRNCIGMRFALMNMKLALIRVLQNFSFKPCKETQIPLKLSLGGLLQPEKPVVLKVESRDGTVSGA
Glyceraldehyde-3-phosphate dehydrogenase, sequence (P04406 whole entry): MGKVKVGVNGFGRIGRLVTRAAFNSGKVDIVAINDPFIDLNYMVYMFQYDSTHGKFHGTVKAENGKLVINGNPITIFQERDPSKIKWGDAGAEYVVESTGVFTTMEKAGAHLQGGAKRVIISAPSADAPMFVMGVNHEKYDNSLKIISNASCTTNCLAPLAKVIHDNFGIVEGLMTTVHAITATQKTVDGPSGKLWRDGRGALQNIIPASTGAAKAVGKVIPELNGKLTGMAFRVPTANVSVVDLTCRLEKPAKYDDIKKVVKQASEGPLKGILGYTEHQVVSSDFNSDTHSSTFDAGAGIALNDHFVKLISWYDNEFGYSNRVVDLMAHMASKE
Cytochrome P450 2D6, sequence (P10635 whole entry): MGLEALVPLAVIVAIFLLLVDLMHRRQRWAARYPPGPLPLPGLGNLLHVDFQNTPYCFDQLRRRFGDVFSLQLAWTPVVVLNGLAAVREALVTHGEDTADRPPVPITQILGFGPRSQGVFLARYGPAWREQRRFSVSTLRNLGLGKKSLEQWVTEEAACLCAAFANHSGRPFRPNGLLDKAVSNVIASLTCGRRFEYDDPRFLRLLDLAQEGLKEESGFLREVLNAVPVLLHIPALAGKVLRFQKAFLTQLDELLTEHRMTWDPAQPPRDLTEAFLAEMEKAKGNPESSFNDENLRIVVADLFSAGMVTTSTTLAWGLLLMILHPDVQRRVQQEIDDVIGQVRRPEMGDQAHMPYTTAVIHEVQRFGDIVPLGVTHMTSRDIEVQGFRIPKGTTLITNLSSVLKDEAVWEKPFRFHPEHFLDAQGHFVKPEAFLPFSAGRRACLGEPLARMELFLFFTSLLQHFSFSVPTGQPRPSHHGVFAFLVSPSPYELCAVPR

O=[N+]([O-])c1ccccc1/C=N/n1c(S)nnc1C1CCCCC1
IC50 [1]: > 122 µM (inactive)

O=C(O)c1cc(S(=O)(=O)Nc2ccccc2C(=O)O)ccc1O
IC50 [2]: > 9.99 µM (inactive) | IC50 [3]: > 100 µM (not active)

COc1ccc(CNC(=O)COC(=O)c2ccc(Br)c(S(=O)(=O)N3CCOCC3)c2)cc1
AC50 [4]: > 100 µM (inactive)

Cc1ccnc(NC(=O)C2CCN(S(=O)(=O)c3c(C)c(C)cc(C)c3C)CC2)c1
IC50 [5]: 1.85 µM (active) | EC50 [6]: > 67.6 µM (inactive)

O=C(CSc1nnc(-c2ccccc2)n1-c1ccc(Cl)cc1)NNC(=S)Nc1ccccc1
IC50 [1]: > 122 µM (inactive)

NC(=Nc1ccccc1)NC(=O)c1nc(Cl)c(N)nc1N [PHENAMIL METHANESULFONATE]
AC50 (Cytochrome P450 2D6): 31.6 µM (inconclusive) | AC50 (Cytochrome P450 1A2): 12.6 µM (inconclusive) | AC50 (Cytochrome P450 3A4): 39.8 µM (inconclusive) | EC50 [6]: > 67.5 µM (inactive)

CC(C)(C)n1cc(C(=O)c2ccc3ccccc3c2O)cn1
AC50 [7]: 6.45 µM (active) | AC50 [8]: 14.3 µM (active) | AC50 [9]: > 52 µM (inactive)

Cc1ccc(S(=O)(=O)NC2=CC(=Nc3ccc(O)cc3)C(=O)c3ccccc32)cc1
IC50 (Nonstructural protein 1): 7.33 µM (active) | IC50 [10]: 1.58 µM (active) | AC50 (INS1): 0.588 µM (active) | CC50 [11]: 2.86 µM (active) | IC50 [12]: 2.14 µM (active) | IC50 [13]: 78.2 µM (active)
